Test results reported in paper PMC6159918 (Peptides, 2018).
Where two headings read alike, the source gives them in different places.

Legend:
[1] = test system: human lung-cancer cells; test: cells; type: cell-based; conditions: for EC50: Homo sapiens; for [3H]-Thymidine Incorporation (Exp/control): 24 h serum-free
[2] = test system: BRS-3/Balb cells; conditions: 24 h serum-free, Balb-3T3 BRS-3-transfected
[3] = target: T1, human BRS-3-receptor (Homo sapiens, UniProt P32247); test: [3H]-inositol phosphates; type: cell-based; conditions: for EC50: EC50, release of [3H]IP; for [3H]IP (Exp/control) / [3H]IP (DPM): MK-5046 10 nM
T1 sequence (P32247 1-399): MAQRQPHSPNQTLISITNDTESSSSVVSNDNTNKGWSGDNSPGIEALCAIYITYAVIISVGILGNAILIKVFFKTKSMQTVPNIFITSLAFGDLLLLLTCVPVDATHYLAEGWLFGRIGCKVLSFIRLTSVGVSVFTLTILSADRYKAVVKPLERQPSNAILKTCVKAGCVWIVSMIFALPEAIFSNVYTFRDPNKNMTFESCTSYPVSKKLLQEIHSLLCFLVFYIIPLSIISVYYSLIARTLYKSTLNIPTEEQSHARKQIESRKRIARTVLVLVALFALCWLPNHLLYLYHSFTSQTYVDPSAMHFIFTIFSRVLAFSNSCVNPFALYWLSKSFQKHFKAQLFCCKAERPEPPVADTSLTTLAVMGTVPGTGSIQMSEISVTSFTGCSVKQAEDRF

[4] = target: T1, human BRS-3-receptor; test: p42/44 MAPK phosphorylation; type: cell-based; conditions: for EC50: EC50, p42/44 phosphorylation; for P-p42/44 (Exp/control): MK-5046 10 nM, 3 min
[5] = target: T1, human BRS-3-receptor; test: Cytosolic Ca2+; type: cell-based; conditions: MK-5046 10 nM

EC50 ([1]; NCI-H69, read-out: EC50, [3H]-Thymidine-uptake): 0.27 ± 0.06 nM | EC50 ([1]; NCI-H358, read-out: EC50, [3H]-Thymidine-uptake): 0.52 ± 0.07 nM | EC50 ([1]; NCI-H727, read-out: EC50, [3H]-Thymidine-uptake): 0.31 ± 0.06 nM | greatest [3H]IP-increase in IP-production ([3]; BRS-3/H1299-cells): 8 fold | EC50 ([3]; BRS-3/H1299 cells): 0.37 ± 0.04 nM | EC50 ([3]; NCI-H69 cells): 3.29 ± 0.54 nM | EC50 ([3]; NCI-H720 cells): 0.14 ± 0.05 nM | decrease in [3H]IP-release at supramaximal concentrations ([3]; H720 cells, p < 0.05): 28% | [3H]IP (Exp/control) ([3]; Balb-3T3 BRS-3 transfected): 7.50 ± 0.68 Exp/control | [3H]IP (DPM) ([3]; Balb-3T3 BRS-3 transfected, control 2487 ± 185): 18657 ± 1698 DPM | [3H]IP (Exp/control) ([3]; NCI-H69 (SCLC)): 3.38 ± 0.17 Exp/control | [3H]IP (DPM) ([3]; NCI-H69 (SCLC), control 177 ± 27): 597 ± 29 DPM | [3H]IP (Exp/control) ([3]; NCI-H82 (SCLC)): 2.09 ± 0.33 Exp/control | [3H]IP (Exp/control) ([3]; NCI-H358 (NSCLC)): 1.50 ± 0.15 Exp/control | [3H]IP (Exp/control) ([3]; NCI-H460 (NSCLC)): 1.63 ± 0.18 Exp/control | [3H]IP (Exp/control) ([3]; NCI-H510 (SCLC)): 1.12 ± 0.05 Exp/control | [3H]IP (Exp/control) ([3]; NCI-H520 (NSCLC)): 1.84 ± 0.36 Exp/control | [3H]IP (Exp/control) ([3]; NCI-H1299 BRS-3 transfected): 7.63 ± 0.77 Exp/control | [3H]IP (Exp/control) ([3]; NCI-N417 (SCLC)): 4.31 ± 1.03 Exp/control | [3H]IP (DPM) ([3]; NCI-N417 (SCLC), control 660 ± 87): 2850 ± 571 DPM | maximal stimulated [3H]IP value ([3]; NCI-H69 cells, 100 nM MK-5046, control 177 ± 27 dpm): 834 ± 66 dpm | maximal stimulated [3H]IP value ([3]; NCI-H720 cells, 10 nM MK-5046, control 268 ± 23 dpm): 375 ± 31 dpm | maximal stimulated [3H]IP value ([3]; hBRS-3-NCI-H1299 cells, 100 nM MK-5046, control 1169 ± 88 dpm): 10,144 ± 1310 dpm | dose-response curve shape, p42/44 phosphorylation ([4]; BRS-3/H1299-transfected-cells): monophasic | EC50 ([4]; BRS-3/H1299-cells): 1.9 ± 0.16 nM | EC50 ([4]; NCI-H69): 0.12 ± 0.01 nM | EC50 ([4]; NCI-H82): 1.08 ± 0.16 nM | EC50 ([4]; NCI-H720): 1.14 ± 0.57 nM | EC50 ([4]; NCI-H727): 0.02 ± 0.01 nM | EC50 ([4]; NCI-N417): 0.02 ± 0.01 nM | P-p42/44 (Exp/control) ([4]; Balb-3T3 BRS-3 transfected): 1.85 ± 0.21 Exp/control | P-p42/44 (Exp/control) ([4]; NCI-H69 (SCLC)): 1.95 ± 0.18 Exp/control | P-p42/44 (Exp/control) ([4]; NCI-H82 (SCLC)): 1.50 ± 0.10 Exp/control | P-p42/44 (Exp/control) ([4]; NCI-H358 (NSCLC)): 2.33 ± 0.34 Exp/control | P-p42/44 (Exp/control) ([4]; NCI-H460 (NSCLC)): 1.07 ± 0.16 Exp/control | P-p42/44 (Exp/control) ([4]; NCI-H510 (SCLC)): 2.22 ± 0.13 Exp/control | P-p42/44 (Exp/control) ([4]; NCI-H520 (NSCLC)): 1.88 ± 0.24 Exp/control | P-p42/44 (Exp/control) ([4]; NCI-H1299 BRS-3 transfected): 1.54 ± 0.28 Exp/control | P-p42/44 (Exp/control) ([4]; NCI-N417 (SCLC)): 1.64 ± 0.25 Exp/control | decrease in p42/44-phosphorylation at supramaximal concentrations ([4]; NCI-H82-cells, p < 0.002): 50 ± 7% | decrease in p42/44-phosphorylation at supramaximal concentrations ([4]; NCI-H727-cells, p < 0.0001): 49 ± 9% | decrease in p42/44-phosphorylation at supramaximal concentrations ([4]; NCI-N417, p < 0.0001): 29 ± 6% | dose-response curve shape, p42/44 phosphorylation ([4]; all the cells (NCI-H727, NCI-H720, NCI-H69, NCI-H82, NCI-N417) except BRS-3/H1299): biphasic | Emax at 1 µM ([4]; read-out: maximal stimulation of p42/44-MAPK phosphorylation): 96 ± 7% | Ca2+ release (% over basal) ([5]; Balb-3T3 BRS-3 transfected): 7.43 ± 1.22 % over basal | Ca2+ release (% over basal) ([5]; NCI-H69 (SCLC)): 3.09 ± 0.67 % over basal | Ca2+ release (% over basal) ([5]; NCI-H82 (SCLC)): 9.00 ± 1.11 % over basal | Ca2+ release (% over basal) ([5]; NCI-H358 (NSCLC)): 1.65 ± 0.43 % over basal | Ca2+ release (% over basal) ([5]; NCI-H460 (NSCLC)): 5.77 ± 1.41 % over basal | Ca2+ release (% over basal) ([5]; NCI-H510 (SCLC)): 2.94 ± 0.52 % over basal | Ca2+ release (% over basal) ([5]; NCI-H520 (NSCLC)): 2.60 ± 0.40 % over basal | Ca2+ release (% over basal) ([5]; NCI-H1299 BRS-3 transfected): 8.04 ± 0.55 % over basal | Ca2+ release (% over basal) ([5]; NCI-N417 (SCLC)): 4.40 ± 0.62 % over basal
Structure (SMILES): O[C@@](Cc1nc(CC2(C(F)(F)F)CC2)c[nH]1)(c1ccc(-n2cccn2)cc1)C(F)(F)F [MK-5046, (2S)-1,1,1-trifluoro-2-[4-(1H-pyrazol-1-yl)phenyl]-3-(4-[[1-(trifluoromethyl)cyclopropyl]methyl]-1H-imidazol-2-yl)propan-2-ol]
[3H]-Thymidine Incorporation (Exp/control) ([1]; MK-5046 10 nM, NCI-H69): 1.36 ± 0.09 Exp/control | [3H]-Thymidine Incorporation (Exp/control) ([1]; MK-5046 10 nM, NCI-H82): 1.08 ± 0.08 Exp/control | [3H]-Thymidine Incorporation (Exp/control) ([1]; MK-5046 10 nM, NCI-H358): 1.20 ± 0.05 Exp/control | [3H]-Thymidine Incorporation (Exp/control) ([1]; MK-5046 10 nM, NCI-H460): 1.29 ± 0.07 Exp/control | [3H]-Thymidine Incorporation (Exp/control) ([1]; MK-5046 10 nM, NCI-H510): 1.39 ± 0.04 Exp/control | [3H]-Thymidine Incorporation (Exp/control) ([1]; MK-5046 10 nM, NCI-H520): 1.27 ± 0.10 Exp/control | [3H]-Thymidine Incorporation (Exp/control) ([1]; MK-5046 10 nM, NCI-H720): 1.15 ± 0.04 Exp/control | [3H]-Thymidine Incorporation (Exp/control) ([1]; MK-5046 10 nM, NCI-H727): 1.41 ± 0.18 Exp/control | [3H]-Thymidine Incorporation (Exp/control) ([1]; MK-5046 10 nM, NCI-H1299 BRS-3-transfected): 1.41 ± 0.06 Exp/control | [3H]-Thymidine Incorporation (Exp/control) ([1]; MK-5046 10 nM, NCI-N417): 1.29 ± 0.08 Exp/control | [3H]-Thymidine Incorporation (Exp/control) ([1]; MK-5046 1 μM, NCI-H69): 0.76 ± 0.07 Exp/control | [3H]-Thymidine Incorporation (Exp/control) ([1]; MK-5046 1 μM, NCI-H82): 1.17 ± 0.05 Exp/control | [3H]-Thymidine Incorporation (Exp/control) ([1]; MK-5046 1 μM, NCI-H358): 1.15 ± 0.06 Exp/control | [3H]-Thymidine Incorporation (Exp/control) ([1]; MK-5046 1 μM, NCI-H460): 1.07 ± 0.07 Exp/control | [3H]-Thymidine Incorporation (Exp/control) ([1]; MK-5046 1 μM, NCI-H510): 1.36 ± 0.10 Exp/control | [3H]-Thymidine Incorporation (Exp/control) ([1]; MK-5046 1 μM, NCI-H520): 1.07 ± 0.14 Exp/control | [3H]-Thymidine Incorporation (Exp/control) ([1]; MK-5046 1 μM, NCI-H720): 1.17 ± 0.03 Exp/control | [3H]-Thymidine Incorporation (Exp/control) ([1]; MK-5046 1 μM, NCI-H727): 1.47 ± 0.16 Exp/control | [3H]-Thymidine Incorporation (Exp/control) ([1]; MK-5046 1 μM, NCI-H1299 BRS-3-transfected): 1.27 ± 0.11 Exp/control | [3H]-Thymidine Incorporation (Exp/control) ([1]; MK-5046 1 μM, NCI-N417): 1.26 ± 0.07 Exp/control | decrease in [3H]-Thymidine-uptake at supramaximal concentrations ([1]; NCI-H69-cells): 87% | decrease in [3H]-Thymidine-uptake at supramaximal concentrations ([1]; NCI-H358-cells): 23% | [3H]-Thymidine Incorporation (Exp/control) ([2]; MK-5046 10 nM): 1.00 ± 0.04 Exp/control | [3H]-Thymidine Incorporation (Exp/control) ([2]; MK-5046 1 μM): 1.24 ± 0.07 Exp/control | [3H]IP (Exp/control) ([3]; NCI-H720 (carcinoid)): 1.64 ± 0.22 Exp/control | [3H]IP (Exp/control) ([3]; NCI-H727 (carcinoid)): 2.59 ± 0.22 Exp/control | [3H]IP (DPM) ([3]; NCI-H727 (carcinoid), control 143 ± 21): 371 ± 32 DPM | P-p42/44 (Exp/control) ([4]; NCI-H720 (carcinoid)): 2.53 ± 0.39 Exp/control | P-p42/44 (Exp/control) ([4]; NCI-H727 (carcinoid)): 2.41 ± 0.34 Exp/control | Ca2+ release (% over basal) ([5]; NCI-H720 (carcinoid)): 2.40 ± 0.28 % over basal | Ca2+ release (% over basal) ([5]; NCI-H727 (carcinoid)): 6.26 ± 1.43 % over basal
